Legend:
[1] = molecular target: IRK1 potassium inward rectifier channel (Rattus norvegicus, UniProt Q64273)
HL5 cells = format: cell-based
[2] = system: voltage-activated chloride and potassium channels of wild-type HEK-293 cells

Chain of IRK1 potassium inward rectifier channel (Q64273 whole entry): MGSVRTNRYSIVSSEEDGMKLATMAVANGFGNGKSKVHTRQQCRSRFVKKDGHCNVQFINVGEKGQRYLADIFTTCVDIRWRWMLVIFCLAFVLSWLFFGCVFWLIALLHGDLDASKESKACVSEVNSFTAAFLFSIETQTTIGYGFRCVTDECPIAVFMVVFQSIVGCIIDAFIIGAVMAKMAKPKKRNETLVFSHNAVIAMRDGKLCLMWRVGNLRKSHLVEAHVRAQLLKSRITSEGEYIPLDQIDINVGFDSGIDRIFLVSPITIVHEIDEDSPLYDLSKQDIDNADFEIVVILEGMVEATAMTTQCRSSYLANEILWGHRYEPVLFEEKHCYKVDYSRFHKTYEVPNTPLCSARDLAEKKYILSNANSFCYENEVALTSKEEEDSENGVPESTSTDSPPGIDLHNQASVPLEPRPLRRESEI

[Ba+2].[Cl-].[Cl-] [barium chloride] was tested, and the “voltage change during stimulation with block” value [1] was “no detectable voltage change during stimulation until the field reaches 80 V/cm”.
For NC1=N[C@H](O)[C@H]2[C@H]3O[C@]4(O)O[C@@H]([C@@H](O)[C@@]2(N1)[C@@H]4O)[C@]3(O)CO [TTX, tetrodotoxin], the “effect on the sustained signal” value (HL5 cells) was “unaffected”.
For CC[N+](CC)(CC)CC [TEA, Tetraethylammonium], the “block of the negative voltage response” value [2] was “partially blocks the response”.

— patent US8071318B2, “High throughput method and system for screening candidate compounds for activity against target ion channels” (Vertex Pharmaceuticals (San Diego) LLC, priority 2000, dated 2011)
